Literature values as cited in patent US6998112B2, “Sleep inducing toothpaste made with natural herbs and a natural hormone” (priority 2003, dated 2006).

Conditions: in vivo

## Melatonin
  adverse effects: isolated reports of exacerbation of depression and fatigue
